One assay concerns epithelial cells (A549). Description: Fas-induced apoptosis, epithelial cells. It is filed as cell-based, human. The settings on record: A549, antibody 136 μg/ml with Fas ligand. As to the method:
A: Normal human lung fibroblast or distal lung epithelial cells were serum-starved overnight and then incubated with indicated concentration of IGF-1R antibody or IGFBP-3 overnight. B: A549 cells were serum-starved and incubated with IGF-1R antibody (136 μg/ml) with or without the indicated concentration of Fas ligand. Apoptosis was measured by Cell Death ELISA-plus ELISA (Roche Applied Science) per the manufacturer's directions. All experiments were done in triplicate and repeated at least twice. Apoptosis index is defined as the ratio of experimental condition OD405 nm: control (media alone) OD405 nm.
Primary normal human lung fibroblasts (Clonetics, Cambrex Bioscience, Rockland, Me.), primary distal lung human epithelial cells (Clonetics) or A549 (American Type Culture Collection, Manassas, Va.) were seeded in a 96-well tissue culture plate (2×10^4 cells/well) overnight and serum-starved for 24 hours. […] After 48 hours, apoptosis was measured. To prevent detached cells from being aspirated, plates were centrifuged at 200×g for 10 minutes, and apoptosis was measured using the Cell Death Detection ELISA-plus System (Roche Applied Science, Penzberg, Germany), which detects cytosolic histone-complexed DNA fragments. […]

Assay [1] has as its system primary mouse lung fibroblasts. The experiment in a line: apoptosis assay (Cell Death Detection ELISA-plus), mouse lung fibroblasts. The conditions noted are these: serum-starved, 24 hours. It is filed as cell-based, C57BL6 mice. As for the experimental part: A. Quantification of TUNEL IHC by number of TUNEL positive cells/total # of cells. Average ±SD of two mice/condition and at least 500 cells analyzed per condition. […] Mouse lung fibroblasts were serum starved overnight and then incubated with indicated concentration of IGF-1R antibody, A12. Apoptosis was measured by Cell Death ELISA-plus (Roche Applied Science). All experiments were done in triplicate and repeated at least twice. Apoptosis index is defined as ratio of experimental condition OD405nm/control (media alone) OD405nm. The data was analyzed using one-way ANOVA with Tukey's HSD post hoc test, and statistical significance (*) was determined at p<0.05.
For apoptosis assays, primary mouse lung fibroblasts were plated in 96-well plates (20,000 cells/well) overnight and serum-starved for 24 hours. Functional blocking antibody to the type 1 IGF receptor (A12) was added to media at indicated concentration for 24 hours. At the end of the experiment, plates were centrifuged at 200×g for 10 minutes to prevent detached cells from being aspirated, and apoptosis was measured using the Cell Death Detection ELISA-plus System (Roche Applied Science, Penzberg, Germany), which detects cytosolic histone-complexed DNA fragments. All experiments were done in triplicate and repeated at least twice. Apoptosis index was defined as ratio of experimental condition OD405nm/control (media alone) OD405nm.

Entries after “also recorded” stand apart in the source; their conditions may differ.

Regarding “A12: Function blocking antibody to the human type 1 IGF receptor, gift from ImClone Systems”, the “Fas-induced apoptosis of epithelial cells” value in the assay with epithelial cells (A549) was “did not alter Fas-induced apoptosis”. Moreover, the figures for the “apoptosis of primary mouse lung fibroblasts” value in assay [1] and in assay [1] (listed as IGF-1R antibody) were “dose-dependent increase in apoptosis; also recorded: Increased apoptosis” and “increased apoptosis”, respectively.

These data come from US8178091B2, “Compositions and methods for the treatment of respiratory disorders” (University of Washington, priority 2007, dated 2012).
